Test system: subjects with idiopathic hypersomnia (IH)
Assay: Part 6 POC IH: treatment-emergent adverse events, single doses, crossover
Conditions: N = 8
Protocol: Part 6 consisted of a 4-way, 4-period crossover study design in approximately 8 subjects (2 subjects per sequence; minimum of 4 subjects with 1 subject per sequence). […] Treatments were administered under fasted state.
Subjects were randomized to 1 of 4 sequences. […] No food was given for at least 3 hours after dose administration (i.e., fast can be broken after the 3-hour PK time point is collected). Water was allowed ad libitum except for 1 hour before and 1 hour after study drug administration. Safety assessments including AEs, safety ECGs, vital signs, and clinical laboratory tests were conducted, and plasma PK samples were collected.
Adverse events (AEs) and serious adverse events (SAEs) were monitored continuously until the completion of the study.
Eight subjects with IH were dosed in Part 6 (POC in IH) in a randomized 4-sequence 4-period cross-over design.

How did the “AE Leading to Study Drug Discontinuation” value (5 mg single dose) turn out when `CS(=O)(=O)N[C@H]1CCCN2C(=O)COc3ccccc3C3CCC(CC3)OCC12` (stereo partly drawn) [Compound A, N-[(4S,4aR,7α,10α)-1,2,3,4,4a,5,7,8,9,10,16,17-dodecahydro-17-oxo-7,10-ethanopyrido[1,2-d][1,7,4]benzodioxaazacyclotridecin-4-yl]methanesulfonamide] was run?
The value was 0 n (%).

And the “Any SAEs” value (5 mg single dose)?
The value was 0 n (%).

What about the “Any TEAE” value (5 mg single dose) of the same molecule?
Its value is 6 (75.0) n (%).

What about the Death (5 mg single dose) of the same molecule?
The Death was 0 n (%).

What about the “Drug Related TEAE by Preferred Term: Cold sweat” value (5 mg single dose) of the same molecule?
The value was 0 n (%).

What about the “Drug Related TEAE by Preferred Term: Dizziness” value (5 mg single dose) of the same molecule?
Its value is 0 n (%).

What about the “Drug Related TEAE by Preferred Term: Dysuria” value (5 mg single dose) of the same molecule?
The value was 0 n (%).

And the “Drug Related TEAE by Preferred Term: Feeling jittery” value (5 mg single dose)?
Its value is 0 n (%).

What about the “Drug Related TEAE by Preferred Term: Insomnia” value (5 mg single dose) of the same molecule?
Its value is 0 n (%).

What about the “Drug Related TEAE by Preferred Term: Micturition urgency” value (5 mg single dose) of the same molecule?
Its value is 1 (12.5) n (%).

And the “Drug Related TEAE by Preferred Term: Middle insomnia” value (5 mg single dose)?
The value was 1 (12.5) n (%).

And the “Drug Related TEAE by Preferred Term: Palpitations” value (5 mg single dose)?
Its value is 0 n (%).

And the “Drug Related TEAE by Preferred Term: Pollakiuria” value (5 mg single dose)?
The value was 2 (25.0) n (%).

And the “Drug Related TEAE by Preferred Term: Supraventricular extrasystoles” value (5 mg single dose)?
The value was 0 n (%).

What about the “Drug Related TEAE by Preferred Term: Tachycardia” value (5 mg single dose) of the same molecule?
The value was 0 n (%).

What about the “Drug Related TEAE by Preferred Term: Visual impairment” value (5 mg single dose) of the same molecule?
The value was 0 n (%).

What about the “Subjects with at least one TEAE” value (5 mg single dose) of the same molecule?
Its value is 6 (75.0) n (%).

What about the “Subjects with at least one treatment-related TEAE” value (5 mg single dose) of the same molecule?
Its value is 2 (25.0) n (%).

And the “TEAE by Highest Relationship: Not Related” value (5 mg single dose)?
Its value is 4 (50.0) n (%).

And the “TEAE by Highest Relationship: Related” value (5 mg single dose)?
The value was 2 (25.0) n (%).

And the “TEAE by Highest Severity: Mild” value (5 mg single dose)?
Its value is 6 (75.0) n (%).

And the “TEAE by Highest Severity: Moderate” value (5 mg single dose)?
Its value is 0 n (%).

And the “TEAE by Highest Severity: Severe” value (5 mg single dose)?
Its value is 0 n (%).

What about the “TEAE by Preferred Term: Blood creatine phosphokinase increased” value (5 mg single dose) of the same molecule?
The value was 0 n (%).

And the “TEAE by Preferred Term: Blood creatinine increased” value (5 mg single dose)?
The value was 0 n (%).

What about the “TEAE by Preferred Term: Cold sweat” value (5 mg single dose) of the same molecule?
The value was 0 n (%).

What about the “TEAE by Preferred Term: Dermatitis contact” value (5 mg single dose) of the same molecule?
The value was 0 n (%).

What about the “TEAE by Preferred Term: Dizziness” value (5 mg single dose) of the same molecule?
Its value is 2 (25.0) n (%).

And the “TEAE by Preferred Term: Dysuria” value (5 mg single dose)?
Its value is 0 n (%).

And the “TEAE by Preferred Term: Epistaxis” value (5 mg single dose)?
The value was 0 n (%).

And the “TEAE by Preferred Term: Feeling jittery” value (5 mg single dose)?
The value was 0 n (%).

And the “TEAE by Preferred Term: Headache” value (5 mg single dose)?
Its value is 1 (12.5) n (%).

And the “TEAE by Preferred Term: Insomnia” value (5 mg single dose)?
Its value is 0 n (%).

And the “TEAE by Preferred Term: Micturition urgency” value (5 mg single dose)?
Its value is 1 (12.5) n (%).

What about the “TEAE by Preferred Term: Middle insomnia” value (5 mg single dose) of the same molecule?
The value was 1 (12.5) n (%).

And the “TEAE by Preferred Term: Nausea” value (5 mg single dose)?
Its value is 1 (12.5) n (%).

What about the “TEAE by Preferred Term: Neck pain” value (5 mg single dose) of the same molecule?
Its value is 1 (12.5) n (%).

What about the “TEAE by Preferred Term: Palpitations” value (5 mg single dose) of the same molecule?
Its value is 0 n (%).

And the “TEAE by Preferred Term: Phlebitis” value (5 mg single dose)?
The value was 0 n (%).

And the “TEAE by Preferred Term: Pollakiuria” value (5 mg single dose)?
The value was 2 (25.0) n (%).

What about the “TEAE by Preferred Term: Presyncope” value (5 mg single dose) of the same molecule?
The value was 0 n (%).

What about the “TEAE by Preferred Term: Skin irritation” value (5 mg single dose) of the same molecule?
The value was 1 (12.5) n (%).

What about the “TEAE by Preferred Term: Steatorrhoea” value (5 mg single dose) of the same molecule?
Its value is 0 n (%).

And the “TEAE by Preferred Term: Supraventricular extrasystoles” value (5 mg single dose)?
The value was 0 n (%).

What about the “TEAE by Preferred Term: Tachycardia” value (5 mg single dose) of the same molecule?
Its value is 0 n (%).

And the “TEAE by Preferred Term: Urinary tract infection” value (5 mg single dose)?
The value was 1 (12.5) n (%).

What about the “TEAE by Preferred Term: Vessel puncture site bruise” value (5 mg single dose) of the same molecule?
Its value is 2 (25.0) n (%).

What about the “TEAE by Preferred Term: Vessel puncture site pain” value (5 mg single dose) of the same molecule?
Its value is 0 n (%).

What about the “TEAE by Preferred Term: Visual impairment” value (5 mg single dose) of the same molecule?
Its value is 0 n (%).

What about the “TEAE by Preferred Term: Vomiting” value (5 mg single dose) of the same molecule?
Its value is 0 n (%).

And the “AE Leading to Study Drug Discontinuation” value (12 mg single dose)?
The value was 0 n (%).

What about the “Any SAEs” value (12 mg single dose) of the same molecule?
Its value is 0 n (%).

And the “Any TEAE” value (12 mg single dose)?
Its value is 5 (62.5) n (%).

And the Death (12 mg single dose)?
The Death was 0 n (%).

What about the “Drug Related TEAE by Preferred Term: Cold sweat” value (12 mg single dose) of the same molecule?
Its value is 0 n (%).

What about the “Drug Related TEAE by Preferred Term: Dizziness” value (12 mg single dose) of the same molecule?
Its value is 0 n (%).

What about the “Drug Related TEAE by Preferred Term: Dysuria” value (12 mg single dose) of the same molecule?
The value was 1 (12.5) n (%).

What about the “Drug Related TEAE by Preferred Term: Feeling jittery” value (12 mg single dose) of the same molecule?
The value was 0 n (%).

What about the “Drug Related TEAE by Preferred Term: Insomnia” value (12 mg single dose) of the same molecule?
The value was 0 n (%).

And the “Drug Related TEAE by Preferred Term: Micturition urgency” value (12 mg single dose)?
The value was 0 n (%).

And the “Drug Related TEAE by Preferred Term: Middle insomnia” value (12 mg single dose)?
Its value is 1 (12.5) n (%).

What about the “Drug Related TEAE by Preferred Term: Palpitations” value (12 mg single dose) of the same molecule?
Its value is 0 n (%).

And the “Drug Related TEAE by Preferred Term: Pollakiuria” value (12 mg single dose)?
The value was 2 (25.0) n (%).

What about the “Drug Related TEAE by Preferred Term: Supraventricular extrasystoles” value (12 mg single dose) of the same molecule?
The value was 0 n (%).

And the “Drug Related TEAE by Preferred Term: Tachycardia” value (12 mg single dose)?
Its value is 0 n (%).

And the “Drug Related TEAE by Preferred Term: Visual impairment” value (12 mg single dose)?
Its value is 0 n (%).

What about the “Subjects with at least one TEAE” value (12 mg single dose) of the same molecule?
The value was 5 (62.5) n (%).

What about the “Subjects with at least one treatment-related TEAE” value (12 mg single dose) of the same molecule?
The value was 3 (37.5) n (%).

What about the “TEAE by Highest Relationship: Not Related” value (12 mg single dose) of the same molecule?
The value was 2 (25.0) n (%).

And the “TEAE by Highest Relationship: Related” value (12 mg single dose)?
The value was 3 (37.5) n (%).

What about the “TEAE by Highest Severity: Mild” value (12 mg single dose) of the same molecule?
The value was 5 (62.5) n (%).

And the “TEAE by Highest Severity: Moderate” value (12 mg single dose)?
The value was 0 n (%).

And the “TEAE by Highest Severity: Severe” value (12 mg single dose)?
Its value is 0 n (%).

What about the “TEAE by Preferred Term: Blood creatine phosphokinase increased” value (12 mg single dose) of the same molecule?
The value was 1 (12.5) n (%).

And the “TEAE by Preferred Term: Blood creatinine increased” value (12 mg single dose)?
Its value is 1 (12.5) n (%).

What about the “TEAE by Preferred Term: Cold sweat” value (12 mg single dose) of the same molecule?
The value was 0 n (%).

And the “TEAE by Preferred Term: Dermatitis contact” value (12 mg single dose)?
Its value is 0 n (%).

What about the “TEAE by Preferred Term: Dizziness” value (12 mg single dose) of the same molecule?
Its value is 0 n (%).

What about the “TEAE by Preferred Term: Dysuria” value (12 mg single dose) of the same molecule?
The value was 1 (12.5) n (%).

And the “TEAE by Preferred Term: Epistaxis” value (12 mg single dose)?
The value was 0 n (%).

What about the “TEAE by Preferred Term: Feeling jittery” value (12 mg single dose) of the same molecule?
The value was 0 n (%).

And the “TEAE by Preferred Term: Headache” value (12 mg single dose)?
The value was 1 (12.5) n (%).

And the “TEAE by Preferred Term: Insomnia” value (12 mg single dose)?
The value was 0 n (%).

And the “TEAE by Preferred Term: Micturition urgency” value (12 mg single dose)?
Its value is 0 n (%).

And the “TEAE by Preferred Term: Middle insomnia” value (12 mg single dose)?
Its value is 1 (12.5) n (%).

And the “TEAE by Preferred Term: Nausea” value (12 mg single dose)?
Its value is 1 (12.5) n (%).

And the “TEAE by Preferred Term: Neck pain” value (12 mg single dose)?
Its value is 0 n (%).

What about the “TEAE by Preferred Term: Palpitations” value (12 mg single dose) of the same molecule?
Its value is 0 n (%).

And the “TEAE by Preferred Term: Phlebitis” value (12 mg single dose)?
The value was 1 (12.5) n (%).

What about the “TEAE by Preferred Term: Pollakiuria” value (12 mg single dose) of the same molecule?
The value was 2 (25.0) n (%).

What about the “TEAE by Preferred Term: Presyncope” value (12 mg single dose) of the same molecule?
Its value is 1 (12.5) n (%).

And the “TEAE by Preferred Term: Skin irritation” value (12 mg single dose)?
Its value is 0 n (%).

And the “TEAE by Preferred Term: Steatorrhoea” value (12 mg single dose)?
Its value is 1 (12.5) n (%).

And the “TEAE by Preferred Term: Supraventricular extrasystoles” value (12 mg single dose)?
Its value is 0 n (%).

And the “TEAE by Preferred Term: Tachycardia” value (12 mg single dose)?
Its value is 0 n (%).

What about the “TEAE by Preferred Term: Urinary tract infection” value (12 mg single dose) of the same molecule?
The value was 0 n (%).

What about the “TEAE by Preferred Term: Vessel puncture site bruise” value (12 mg single dose) of the same molecule?
Its value is 0 n (%).

And the “TEAE by Preferred Term: Vessel puncture site pain” value (12 mg single dose)?
Its value is 0 n (%).

And the “TEAE by Preferred Term: Visual impairment” value (12 mg single dose)?
Its value is 0 n (%).

And the “TEAE by Preferred Term: Vomiting” value (12 mg single dose)?
Its value is 0 n (%).

What about the “AE Leading to Study Drug Discontinuation” value (25 mg single dose) of the same molecule?
Its value is 0 n (%).
